For orientation: IC50 means the concentration needed to halve the response being measured. Low readings indicate greater potency in that assay, high ones weaker potency in that assay.

The test system of one experiment is saphenous artery rings. The experiment can be described thus: Vasorelaxant effect in vitro (phenylephrine-contracted artery rings). Conditions: rabbit saphenous artery rings, contraction induced by phenylephrine. The format is cell-based, Rabbits. The method, then: B-1. Vasorelaxant Effect In Vitro:
Rabbits are anaesthetized and sacrificed by intravenous injection of thiopental sodium (about 50 mg/kg) and exsanguinated. The saphenous artery is removed and divided into rings 3 mm wide. The rings are mounted singly on in each case a pair of triangular hooks open at the end and made of 0.3 mm-thick special wire (Remanium®). Each ring is placed under an initial tension in 5 ml organ baths with Krebs-Henseleit solution which is at 37° C., is gassed with 95% O2/5% CO2 and has the following composition: NaCl 119 mM; KCl 4.8 mM; CaCl2×2H2O 1 mM; MgSO4×7H2O 1.4 mM; KH2PO4 1.2 mM; NaHCO3 25 mM; glucose 10 mM; bovine serum albumin 0.001%. The force of contraction is detected with Statham UC2 cells, amplified and digitized via A/D converters (DAS-1802 HC, Keithley Instruments, Munich) and recorded in parallel on chart recorders. Contractions are induced by addition of phenylephrine.
After several (generally 4) control cycles, the substance to be investigated is added in each further run in increasing dosage, and the height of the contraction achieved under the influence of the test substance is compared with the height of the contraction reached in the last preceding run. The concentration necessary to reduce the contraction reached in the preceding control by 50% is calculated from this (IC50). The standard application volume is 5 μl. The proportion of DMSO in the bath solution corresponds to 0.1%.

For experiment [1], the target named is T1, Haem-containing sGC (recombinant soluble guanylate cyclase) (Rattus norvegicus, UniProt P20595).
T1 construct: made in house; host or cells: Sf9 insect cells (baculovirus)
T1 sequence (P20595 1-619): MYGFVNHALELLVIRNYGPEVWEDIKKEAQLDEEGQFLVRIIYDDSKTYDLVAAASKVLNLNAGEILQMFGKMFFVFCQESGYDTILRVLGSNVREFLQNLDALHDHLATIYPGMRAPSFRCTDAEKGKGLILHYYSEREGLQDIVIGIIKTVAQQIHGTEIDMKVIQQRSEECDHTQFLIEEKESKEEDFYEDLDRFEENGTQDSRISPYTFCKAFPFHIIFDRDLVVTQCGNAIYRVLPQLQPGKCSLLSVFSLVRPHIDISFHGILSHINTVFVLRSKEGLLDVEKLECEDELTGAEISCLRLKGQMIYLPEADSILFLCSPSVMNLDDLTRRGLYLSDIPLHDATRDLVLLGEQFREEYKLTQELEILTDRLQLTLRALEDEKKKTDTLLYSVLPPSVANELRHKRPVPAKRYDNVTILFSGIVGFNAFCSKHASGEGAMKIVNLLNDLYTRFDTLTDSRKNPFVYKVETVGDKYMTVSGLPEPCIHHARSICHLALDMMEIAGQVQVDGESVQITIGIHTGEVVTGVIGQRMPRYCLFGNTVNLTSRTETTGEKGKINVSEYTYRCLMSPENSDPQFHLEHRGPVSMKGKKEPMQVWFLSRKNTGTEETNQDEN
T1 sequence (P19686 1-690 partner): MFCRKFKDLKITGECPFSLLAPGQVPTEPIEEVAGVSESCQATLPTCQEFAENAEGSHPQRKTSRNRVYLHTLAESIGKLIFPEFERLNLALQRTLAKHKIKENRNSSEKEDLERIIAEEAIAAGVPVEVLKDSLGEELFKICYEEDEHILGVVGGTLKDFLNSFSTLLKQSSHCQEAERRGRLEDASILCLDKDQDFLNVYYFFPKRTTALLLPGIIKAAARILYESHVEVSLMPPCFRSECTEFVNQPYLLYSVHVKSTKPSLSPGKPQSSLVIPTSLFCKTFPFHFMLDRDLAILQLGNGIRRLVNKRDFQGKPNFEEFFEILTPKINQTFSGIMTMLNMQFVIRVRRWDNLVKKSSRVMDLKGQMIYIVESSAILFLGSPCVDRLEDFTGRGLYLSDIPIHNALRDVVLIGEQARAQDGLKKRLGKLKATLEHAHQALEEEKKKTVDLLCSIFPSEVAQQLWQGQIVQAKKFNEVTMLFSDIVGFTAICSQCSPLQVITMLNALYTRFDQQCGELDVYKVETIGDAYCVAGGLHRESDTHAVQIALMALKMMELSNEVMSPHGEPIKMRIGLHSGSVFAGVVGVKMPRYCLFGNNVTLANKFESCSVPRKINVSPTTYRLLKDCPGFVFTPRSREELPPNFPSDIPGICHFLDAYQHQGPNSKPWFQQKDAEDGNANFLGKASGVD
The experiment can be described thus: Stimulation of recombinant soluble guanylate cyclase (sGC) in vitro, haem-containing enzyme. As to conditions: 0.0 μM Example 5. Format: biochemical. The text has this: (§1) B-2. Stimulation of Recombinant Soluble Guanylate Cyclase (sGC) In Vitro:
Hoenicka, E. M. Becker, H. Apeler, T. Sirichoke, H. Schroeder, R. Gerzer and J.-P. Stasch, “Purified soluble guanylyl cyclase expressed in a baculovirus/Sf9 system: Stimulation by YC-1, nitric oxide, and carbon oxide”, J. Mol. Med. 77 (1999), 14-23. The haem-free guanylate cyclase is obtained by adding Tween 20 to the sample buffer (0.5% in the final concentration).
(§2) The activation of sGC by a test substance is reported as n-fold stimulation of the basal activity.

Experiment [2] addresses T2, Haem-free sGC (recombinant soluble guanylate cyclase) (Rattus norvegicus, UniProt P20595).
T2 construct: made in house; host or cells: Sf9 insect cells (baculovirus)
T2 sequence (P20595 1-619): T1 sequence (P20595 1-619)
T2 sequence (P19686 1-690 partner): T1 sequence (P19686 1-690 partner)
Put plainly: Stimulation of recombinant soluble guanylate cyclase (sGC) in vitro, haem-free enzyme. Format: biochemical. As to conditions: 10 μM ODQ, 0.0 μM Example 5. The method, then: as §1
Investigations on the stimulation of recombinant soluble guanylate cyclase (sGC) by the compounds according to the invention with and without sodium nitroprusside, and with and without the haem-dependent sGC inhibitor 1H-1,2,4-oxadiazole-(4,3a)-quinoxalin-1-one (ODQ) are carried out by the method described in detail in the following reference: M. Hoenicka, E. M. Becker, H. Apeler, T. Sirichoke, H. Schroeder, R. Gerzer and J.-P. Stasch, “Purified soluble guanylyl cyclase expressed in a baculovirus/Sf9 system: Stimulation by YC-1, nitric oxide, and […]”, J. Mol. Med. 77 (1999), 14-23. The haem-free guanylate cyclase is obtained by adding Tween 20 to the sample buffer (0.5% in the final concentration).
as §2

Turning to `CC(C)(C)c1ccc(COc2ccccc2/C=C/C(CCc2ccc(C(=O)O)cc2)Cc2ccc(C(=O)O)cc2)cc1` (racemic) [Example 2, 4-[(4E)-5-{2-[(4-tert-Butylbenzyl)oxy]phenyl}-3-(4-carboxybenzyl)pent-4-en-1-yl]benzoic Acid], in the experiment with saphenous artery rings, half-maximal inhibition (IC50) was put at 0.54 nM. Consider `CC(C)(C)c1ccc(COc2ccccc2/C=C/C(CCc2ccc(C(=O)O)cc2)Cc2ccc(C(=O)O)cc2)cc1` (racemic) [Example 3, 4-[(4E)-5-{2-[(4-tert-Butylbenzyl)oxy]phenyl}-3-(4-carboxybenzyl)pent-4-en-1-yl]benzoic Acid], for which, in the experiment on saphenous artery rings, the concentration for half-maximal inhibition (IC50) is 4.7 nM. The same measure, in the same setting: the figure for `O=C(O)c1ccc(CCC(/C=C/c2ccccc2OCCCCCc2ccccc2)Cc2ccc(C(=O)O)cc2)cc1` (racemic) [Example 6, 4-((4E)-3-(4-Carboxybenzyl)-5-{2-[(5-phenylpentyl)oxy]phenyl}pent-4-en-1-yl)benzoic Acid] is 122 nM. The molecule `O=C(O)c1ccc(CCC(/C=C/c2ccccc2OCc2ccc(CCc3ccccc3)cc2)Cc2ccc(C(=O)O)cc2)cc1` (racemic) [Example 7, 4-[(4E)-3-(4-Carboxybenzyl)-5-(2-{[4-(2-phenylethyl)benzyl]oxy}phenyl)pent-4-en-1-yl]benzoic acid] came in with an IC50 in the experiment with saphenous artery rings (Oryctolagus cuniculus) of 21 nM. On the same count and under the same terms, the figure for `O=C(O)c1ccc(CCC(/C=C/c2ccccc2OCCCC(F)(F)F)Cc2ccc(C(=O)O)cc2)cc1` (racemic) [Example 11, 4-{(4E)-3-(4-Carboxybenzyl)-5-[2-(4,4,4-trifluorobutoxy)phenyl]pent-4-en-1-yl}benzoic Acid] is 129 nM. The same measure, in the same setting: with `COc1ccccc1/C=C/C(CCc1ccc(C(=O)O)cc1)Cc1ccc(C(=O)O)cc1` (racemic) [Example 13, 4-[(4E)-3-(4-Carboxybenzyl)-5-(2-methoxyphenyl)pent-4-en-1-yl]benzoic Acid] the figure was 52.2 nM. On the same count and under the same terms, the figure for `CCCCCOc1ccccc1/C=C/C(CCc1ccc(C(=O)O)cc1)Cc1ccc(C(=O)O)cc1` (racemic) [Example 17, 4-{(4E)-3-(4-Carboxybenzyl)-5-[2-(pentyloxy)phenyl]pent-4-en-1-yl}benzoic Acid] is 1.1 nM.

With `O=C(O)c1ccc(CCC(/C=C/c2ccccc2OCCCCC(F)(F)F)Cc2ccc(C(=O)O)cc2)cc1` (racemic) [Example 42, 4-[(4E)-3-(4-Carboxybenzyl)-5-{2-[(5,5,5-trifluoropentyl)oxy]phenyl}pent-4-en-1-yl]benzoic Acid], the IC50 in the experiment with saphenous artery rings (Oryctolagus cuniculus) amounted to 19 nM. In turn, `O=C(O)c1ccc(CCC(/C=C/c2cc(F)ccc2OCc2ccc(C(F)(F)F)cc2)Cc2ccc(C(=O)O)cc2)cc1` (single isomer, unassigned) [Example 54, 4-[(4E)-3-(4-Carboxybenzyl)-5-(5-fluoro-2-{[4-(trifluoromethyl)benzyl]oxy}phenyl)pent-4-en-1-yl]benzoic Acid] yielded an IC50 in the experiment with saphenous artery rings (Oryctolagus cuniculus) of 90 nM. As to `CCN(CC)[N+]([O-])=NO` [DEA/NO, 2-(N,N-diethylamino)diazenolate 2-oxide, reference compound], in experiment [1] (0.1 μM DEA/NO), the “Stimulation (n-fold) Haem-containing sGC by DEA/NO alone” value was found to be 78.7 n-fold. Consider `O=C(O)c1ccc(CCC(C=Cc2ccccc2OCc2ccc(-c3ccc(C(F)(F)F)cc3)cc2)Cc2ccc(C(=O)O)cc2)cc1` (stereo not shown) [Example 10, 4-[(4E/Z)-3-(4-Carboxybenzyl)-5-(2-{[4′-(trifluoromethyl)biphenyl-4-yl]methoxy}phenyl)pent-4-en-1-yl]benzoic Acid], for which the IC50 in the experiment with saphenous artery rings (Oryctolagus cuniculus) was determined as 48 nM.

In the experiment on saphenous artery rings (Oryctolagus cuniculus), `O=C(O)c1ccc(CCC(/C=C/c2ccccc2OCc2ccc(C(F)(C(F)(F)F)C(F)(F)F)cc2)Cc2ccc(C(=O)O)cc2)cc1` (stereo not shown) [Example 44, 4-{(4E)-3-(4-Carboxybenzyl)-5-[2-({4-[1,2,2,2-tetrafluoro-1-(trifluoromethyl)ethyl]benzyl}oxy)-phenyl]pent-4-en-1-yl}benzoic Acid] had an IC50 of 22 nM. `O=C(O)c1ccc(CCC(/C=C/c2ccccc2OCc2ccc(OC(F)(F)F)cc2)Cc2ccc(C(=O)O)cc2)cc1` (stereo not shown) [Example 45] registered a half-maximal inhibitory concentration (IC50) with saphenous artery rings (Oryctolagus cuniculus) of 6 nM. Still for that read-out and setting: with `O=C(O)c1ccc(CCC(/C=C/c2ccccc2OCc2cc(C(F)(F)F)cc(C(F)(F)F)c2)Cc2ccc(C(=O)O)cc2)cc1` (stereo not shown) [Example 48] the figure was 4 nM; with `O=C(O)c1ccc(CCC(/C=C/c2ccccc2OC(F)(F)c2ccc(C(F)(F)F)cc2)Cc2ccc(C(=O)O)cc2)cc1` (stereo not shown) [Example 50], 370 nM; with `O=C(O)c1ccc(CCC(/C=C/c2cc(F)ccc2OCc2ccc(C(F)(F)F)cc2)Cc2ccc(C(=O)O)cc2)cc1` (stereo not shown) [Example 55], 287 nM. In the experiment with saphenous artery rings (Oryctolagus cuniculus), `O=C(O)c1ccc(CCC(/C=C/c2cc(F)ccc2OCc2ccc(OC(F)(F)F)cc2)Cc2ccc(C(=O)O)cc2)cc1` (stereo not shown) [Example 56] gave an IC50 of 77 nM. With `O=c1onc2cnc3ccccc3n12` [ODQ, 1H-1,2,4-oxadiazole-(4,3a)-quinoxalin-1-one, reference compound], in experiment [2], the “Stimulation (n-fold) Haem-free sGC with ODQ alone” value is given as 2.0 n-fold. Also, the “Stimulation (n-fold) Haem-containing sGC with ODQ alone” value in experiment [1] (10 μM ODQ) was determined as 38.8 n-fold.

The values are drawn from US8609727B2, “Dicarboxylic acid derivatives and their use” (Bayer Intellectual Property GmbH, priority 2005, dated 2013).
